Test results reported in ChEMBL document CHEMBL1201862, “PubChem BioAssay data set” (2004).
Activity calls are given as the source filed them.

What was measured:
[1] = biological target: T1, Microphthalmia-associated transcription factor (Homo sapiens, UniProt O75030); test: TRPM1 promoter luciferase signal decrease, dose response, MITF inhibitor project, cell-based, SK-MEL-5, cherry-picked, set 3 (AID 493073); type: functional
T1 sequence (O75030 whole entry): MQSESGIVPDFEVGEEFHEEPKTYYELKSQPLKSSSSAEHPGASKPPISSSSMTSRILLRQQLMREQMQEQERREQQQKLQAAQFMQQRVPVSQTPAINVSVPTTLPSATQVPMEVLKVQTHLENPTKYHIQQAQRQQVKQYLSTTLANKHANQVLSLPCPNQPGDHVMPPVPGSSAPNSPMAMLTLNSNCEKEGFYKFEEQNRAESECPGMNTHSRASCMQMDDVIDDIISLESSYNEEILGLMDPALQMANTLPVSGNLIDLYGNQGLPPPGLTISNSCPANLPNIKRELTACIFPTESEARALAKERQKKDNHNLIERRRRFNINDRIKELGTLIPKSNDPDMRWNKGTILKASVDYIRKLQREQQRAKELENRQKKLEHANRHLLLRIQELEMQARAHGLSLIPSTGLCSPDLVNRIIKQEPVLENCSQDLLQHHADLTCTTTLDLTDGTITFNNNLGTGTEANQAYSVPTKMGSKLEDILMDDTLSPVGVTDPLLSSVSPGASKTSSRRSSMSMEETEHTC

INS1 = test: beta cell apoptosis inhibitors, cytokine rescue, dose response, luminescence, retest (AID 449756); type: functional, cell-based; details: Rattus norvegicus;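 further: cell death triggered by IL-1 beta plus TNF-alpha plus IFN-gamma mixture; protective hits raise ATP signal compared with cytokine alone wells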
A-375 = test: A375 melanoma cell viability reduction, dose response, counter-screen for MITF modulator project, cherry-pick samples, set 2 (AID 540335); type: functional, cell-based; details: Homo sapiens
[2] = inhibitors of PGC1a acetylation in cells, dose response, cell-based, cherry-picked samples (AID 720514); type: functional;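 further: potency may reflect raised or lowered acetylation signal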
Cytochrome P450 1A2 = biological target: T2, Cytochrome P450 1A2 (Homo sapiens, UniProt P05177);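 further: PubChem cytochrome P450 panel assay, CYP1A2 panel member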
T2 sequence (P05177 whole entry): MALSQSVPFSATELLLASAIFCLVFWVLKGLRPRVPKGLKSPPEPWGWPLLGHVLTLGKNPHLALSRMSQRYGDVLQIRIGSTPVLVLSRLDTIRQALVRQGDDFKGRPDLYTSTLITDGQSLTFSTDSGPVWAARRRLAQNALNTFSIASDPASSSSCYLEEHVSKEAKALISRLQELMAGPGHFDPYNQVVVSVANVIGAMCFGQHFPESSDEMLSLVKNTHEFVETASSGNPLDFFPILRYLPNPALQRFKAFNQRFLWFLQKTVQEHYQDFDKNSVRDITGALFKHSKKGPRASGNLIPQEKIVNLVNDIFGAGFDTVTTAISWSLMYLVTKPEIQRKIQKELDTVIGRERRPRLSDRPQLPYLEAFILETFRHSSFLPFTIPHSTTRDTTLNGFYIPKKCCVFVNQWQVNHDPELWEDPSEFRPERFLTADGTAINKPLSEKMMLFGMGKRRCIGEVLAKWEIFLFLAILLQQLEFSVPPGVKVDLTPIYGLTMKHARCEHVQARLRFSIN

Cytochrome P450 2D6 = Cytochrome P450 2D6 (Homo sapiens, UniProt P10635);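 further: CYP2D6 member of a cytochrome P450 panel assay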
Chain of Cytochrome P450 2D6 (P10635 whole entry): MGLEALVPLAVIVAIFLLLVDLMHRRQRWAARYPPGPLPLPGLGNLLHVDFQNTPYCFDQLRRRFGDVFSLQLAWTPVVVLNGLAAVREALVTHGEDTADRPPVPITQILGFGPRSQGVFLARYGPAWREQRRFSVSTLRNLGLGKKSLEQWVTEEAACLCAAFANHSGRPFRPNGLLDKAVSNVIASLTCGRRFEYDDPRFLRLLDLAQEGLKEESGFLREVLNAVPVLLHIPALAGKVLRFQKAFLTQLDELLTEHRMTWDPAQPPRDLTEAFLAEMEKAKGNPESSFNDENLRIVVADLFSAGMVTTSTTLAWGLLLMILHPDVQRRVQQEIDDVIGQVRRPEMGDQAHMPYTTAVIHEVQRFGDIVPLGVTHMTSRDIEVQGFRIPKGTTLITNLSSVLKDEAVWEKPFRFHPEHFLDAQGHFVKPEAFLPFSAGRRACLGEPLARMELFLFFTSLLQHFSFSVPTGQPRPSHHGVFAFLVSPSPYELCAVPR

Cytochrome P450 2C9 = Cytochrome P450 2C9 (Homo sapiens, UniProt P11712)
Chain of Cytochrome P450 2C9 (P11712 whole entry): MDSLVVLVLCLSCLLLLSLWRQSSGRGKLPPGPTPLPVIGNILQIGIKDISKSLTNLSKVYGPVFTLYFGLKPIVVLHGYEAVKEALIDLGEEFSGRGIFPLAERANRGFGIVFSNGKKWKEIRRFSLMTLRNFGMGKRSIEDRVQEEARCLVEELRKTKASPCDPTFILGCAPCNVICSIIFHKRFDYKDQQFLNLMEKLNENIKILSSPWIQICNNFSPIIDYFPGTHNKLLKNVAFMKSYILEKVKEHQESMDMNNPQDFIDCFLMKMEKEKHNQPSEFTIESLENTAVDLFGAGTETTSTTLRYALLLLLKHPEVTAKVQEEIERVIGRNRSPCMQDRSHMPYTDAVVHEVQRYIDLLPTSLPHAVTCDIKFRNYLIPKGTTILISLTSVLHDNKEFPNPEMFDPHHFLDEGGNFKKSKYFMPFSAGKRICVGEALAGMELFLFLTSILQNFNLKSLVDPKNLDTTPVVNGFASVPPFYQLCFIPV

[3] = biological target: T3, Polyadenylate-binding protein 1 (Homo sapiens, UniProt P11940); test: PABP1 MLLE–PAM2 binding inhibitor potency, dose response, biochemical, fluorescence polarization, FITC-PAM2 peptide (AID 602259); type: functional; details: read-out: IC50_Mean
T3 sequence (P11940 whole entry): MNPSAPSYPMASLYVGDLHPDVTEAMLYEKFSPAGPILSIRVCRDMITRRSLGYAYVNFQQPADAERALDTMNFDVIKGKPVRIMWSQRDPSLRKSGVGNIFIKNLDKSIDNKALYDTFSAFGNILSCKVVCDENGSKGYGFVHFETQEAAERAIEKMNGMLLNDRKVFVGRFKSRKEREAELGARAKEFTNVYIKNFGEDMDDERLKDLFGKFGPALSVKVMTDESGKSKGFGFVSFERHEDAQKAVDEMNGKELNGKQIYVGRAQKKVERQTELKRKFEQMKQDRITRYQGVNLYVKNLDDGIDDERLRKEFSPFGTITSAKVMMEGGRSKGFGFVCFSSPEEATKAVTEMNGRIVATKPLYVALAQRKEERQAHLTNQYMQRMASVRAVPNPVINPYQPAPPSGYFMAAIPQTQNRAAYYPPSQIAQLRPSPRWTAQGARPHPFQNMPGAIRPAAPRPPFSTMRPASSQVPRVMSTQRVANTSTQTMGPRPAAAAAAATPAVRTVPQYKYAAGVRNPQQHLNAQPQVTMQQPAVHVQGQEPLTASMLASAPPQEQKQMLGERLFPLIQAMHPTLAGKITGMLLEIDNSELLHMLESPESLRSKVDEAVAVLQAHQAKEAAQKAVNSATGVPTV

[4] = HepG2 cell cytotoxicity, dose response, cytotoxicity control for Shn3 inhibitor project, CellTiter-Glo, cherry-picked (AID 624134); type: functional, cell-based
[5] = control 3'UTR Renilla luciferase suppression, dose response, counter-screen for Shn3 inhibitor project, cell-based, Clone20-Shn3RL, cherry-picked (AID 624133); type: functional
[6] = biological target: T3, Polyadenylate-binding protein 1; test: PABP1 MLLE–PAM2 interaction inhibitors, dose response, miRNA deadenylation inhibitor project, biochemical, fluorescence polarization, Cy5-PAM2 peptide, secondary (AID 602260); type: functional; details: read-out: IC50_Mean
HEK293 [7] = test: cells; details: Homo sapiens
[8] = Shn3 3'UTR reporter inhibitors, dose response, cell-based, Clone20 osteoblasts, firefly luciferase, cherry-picked (AID 624132); type: functional;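 further: firefly luciferase luminescence from reporter carrying the Shn3 3'UTR in osteoblasts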
HEK293 [9] = test: cells; details: Homo sapiens; remark: listed apart in the source
[10] = biological target: Voltage-gated inwardly rectifying potassium channel KCNH2 (Homo sapiens, UniProt Q12809); details: Potency;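 further: confirmatory quantitative high-throughput screen measuring inhibition of hERG channel activity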
Chain of Voltage-gated inwardly rectifying potassium channel KCNH2 (Q12809 whole entry): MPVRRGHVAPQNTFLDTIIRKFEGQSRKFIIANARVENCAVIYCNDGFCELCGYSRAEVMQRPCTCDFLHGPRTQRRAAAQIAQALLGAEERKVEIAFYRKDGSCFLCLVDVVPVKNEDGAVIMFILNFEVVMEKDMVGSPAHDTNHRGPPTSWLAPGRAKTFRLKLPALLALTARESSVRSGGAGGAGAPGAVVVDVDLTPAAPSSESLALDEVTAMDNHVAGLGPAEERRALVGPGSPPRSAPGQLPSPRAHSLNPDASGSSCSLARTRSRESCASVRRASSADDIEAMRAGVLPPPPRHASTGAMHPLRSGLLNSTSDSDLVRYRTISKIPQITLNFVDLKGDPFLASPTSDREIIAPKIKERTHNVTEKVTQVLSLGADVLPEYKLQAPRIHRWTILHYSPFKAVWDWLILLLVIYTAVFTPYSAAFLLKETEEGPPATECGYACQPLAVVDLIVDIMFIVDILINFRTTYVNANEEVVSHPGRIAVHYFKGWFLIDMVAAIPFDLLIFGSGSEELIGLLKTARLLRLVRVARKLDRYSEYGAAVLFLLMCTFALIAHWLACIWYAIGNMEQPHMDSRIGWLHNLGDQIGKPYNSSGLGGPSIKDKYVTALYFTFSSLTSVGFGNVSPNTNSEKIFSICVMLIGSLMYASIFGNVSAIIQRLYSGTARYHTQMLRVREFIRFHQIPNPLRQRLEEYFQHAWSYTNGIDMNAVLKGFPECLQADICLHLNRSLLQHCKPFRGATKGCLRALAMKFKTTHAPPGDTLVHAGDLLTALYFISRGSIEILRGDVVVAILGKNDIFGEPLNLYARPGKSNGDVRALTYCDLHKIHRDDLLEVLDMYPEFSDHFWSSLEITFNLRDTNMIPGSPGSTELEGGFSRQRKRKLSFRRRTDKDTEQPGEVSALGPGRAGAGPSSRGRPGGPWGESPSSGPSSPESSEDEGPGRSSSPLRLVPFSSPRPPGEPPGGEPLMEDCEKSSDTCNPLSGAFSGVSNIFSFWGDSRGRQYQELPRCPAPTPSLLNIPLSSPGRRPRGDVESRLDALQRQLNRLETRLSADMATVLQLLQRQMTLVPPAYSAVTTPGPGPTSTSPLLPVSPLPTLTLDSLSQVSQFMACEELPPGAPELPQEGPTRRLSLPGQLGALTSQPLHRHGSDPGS

Cytochrome P450 3A4 = Cytochrome P450 3A4 (Homo sapiens, UniProt P08684);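 further: CYP3A4 tested as one member of a cytochrome P450 panel screen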
Chain of Cytochrome P450 3A4 (P08684 whole entry): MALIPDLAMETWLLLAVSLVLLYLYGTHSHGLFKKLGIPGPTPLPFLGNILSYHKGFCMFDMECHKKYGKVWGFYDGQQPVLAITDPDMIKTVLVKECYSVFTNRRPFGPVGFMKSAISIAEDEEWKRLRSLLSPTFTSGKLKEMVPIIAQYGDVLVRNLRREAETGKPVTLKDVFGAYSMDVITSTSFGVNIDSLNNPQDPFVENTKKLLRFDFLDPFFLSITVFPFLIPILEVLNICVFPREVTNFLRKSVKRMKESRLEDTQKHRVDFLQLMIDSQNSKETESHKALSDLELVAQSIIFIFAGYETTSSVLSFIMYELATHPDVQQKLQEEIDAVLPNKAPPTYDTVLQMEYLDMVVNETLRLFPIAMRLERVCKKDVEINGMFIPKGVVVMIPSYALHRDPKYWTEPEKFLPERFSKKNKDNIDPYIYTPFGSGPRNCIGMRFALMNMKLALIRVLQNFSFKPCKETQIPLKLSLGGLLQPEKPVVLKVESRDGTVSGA

[11] = biological target: T4, Mannose-6-phosphate isomerase (Homo sapiens, UniProt P34949); test: PMI enzyme inhibitors, confirmation, biochemical, fluorescence intensity (AID 1535)
T4 sequence (P34949 whole entry): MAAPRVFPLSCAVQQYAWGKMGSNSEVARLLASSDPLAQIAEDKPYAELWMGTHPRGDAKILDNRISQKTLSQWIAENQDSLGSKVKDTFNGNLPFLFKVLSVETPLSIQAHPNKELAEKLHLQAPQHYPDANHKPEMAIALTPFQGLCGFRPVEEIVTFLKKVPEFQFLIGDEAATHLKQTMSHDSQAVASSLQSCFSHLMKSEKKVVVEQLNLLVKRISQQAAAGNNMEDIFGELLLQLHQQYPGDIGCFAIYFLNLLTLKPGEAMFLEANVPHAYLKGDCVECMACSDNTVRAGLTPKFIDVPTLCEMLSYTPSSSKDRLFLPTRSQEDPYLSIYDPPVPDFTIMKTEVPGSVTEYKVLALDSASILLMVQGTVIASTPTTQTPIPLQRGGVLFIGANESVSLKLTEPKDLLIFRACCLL

Phosphomannomutase 2 = biological target: T5, Phosphomannomutase 2 (Homo sapiens, UniProt O15305); test: Counter screen SAR assay for PMM2 inhibitors via a fluorescence intensity assay. [Related pubchem assays (depositor defined):AID1545, AID1574]
T5 sequence (O15305 whole entry): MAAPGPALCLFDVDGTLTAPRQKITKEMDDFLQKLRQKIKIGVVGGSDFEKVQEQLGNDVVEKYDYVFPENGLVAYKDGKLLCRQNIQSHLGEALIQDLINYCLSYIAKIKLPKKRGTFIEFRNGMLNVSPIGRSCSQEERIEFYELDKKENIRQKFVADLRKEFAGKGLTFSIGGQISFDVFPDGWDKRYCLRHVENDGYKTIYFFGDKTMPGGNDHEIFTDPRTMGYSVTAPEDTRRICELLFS

Compound: COc1cc(NC(=O)c2[nH]cnc2C(N)=O)cc(C(=O)Nc2cccc(C(F)(F)F)c2)c1
- AC50 [1]: 10.9 µM (active)
- AC50 (INS1): 3.48 µM (active)
- AC50 (A-375): 17 µM (active)
- AC50 [2]: 6.34 µM (active)

Compound: CC(C)NC(=O)C1CC(=O)N(c2ccc(F)c(Cl)c2)C1 (stereo not drawn)
- AC50 (Cytochrome P450 1A2): 2 µM (inconclusive)
- AC50 (Cytochrome P450 2D6): 14.1 µM (inconclusive)
- AC50 (Cytochrome P450 2C9): inconclusive

Compound: COc1ccc(OC)c(/C=C/C(=O)N2C(=O)c3cccc(N)c3C2=O)c1
- IC50 [3]: > 66 µM (inactive)
- AC50 [4]: 58.5 µM (active)
- AC50 [5]: 26.6 µM (active)
- IC50 [6]: > 66 µM (inactive)
- EC50 (HEK293 [7]): > 59.7 µM (inactive)
- AC50 [8]: 3.25 µM (active)
- EC50 (HEK293 [9]): > 59.7 µM (inactive)

Compound: [Cl-].[Li+] [CHLOROLITHIUM]
- AC50 [10]: 6.31 µM (inconclusive)
- AC50 (Cytochrome P450 3A4): 31.6 µM (inconclusive)

Compound: Cc1ccc(NP(=O)(c2ccccc2)c2nc3ccccc3s2)cc1 (stereo not drawn)
- IC50 [11]: > 50 µM (inactive)
- IC50 (Phosphomannomutase 2): > 100 µM (inactive)
